Source: patent publication US11214803B2, “Modulators of YAP1 expression” (Ionis Pharmaceuticals, Inc., priority 2019, dated 2022)
Strand notation (5' to 3'): a small letter for the sugar, then the base; units joined by * are phosphorothioate-linked, units joined directly phosphodiester-linked; [ ] holds rarer units or linkages, { } end groups; capitals alone tell only the bases. k = constrained ethyl (cEt); [5mC] = 5-methylcytosine; d = 2'-deoxy (DNA)

Tested on: Yap1 mRNA
Assay: Antisense inhibition of human Yap1 in A-431 cells by cEt gapmers, single dose (Example 4, RTS4814)
Assay type: cell-based
Procedure, shortened: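 Values are % UTC: Yap1 mRNA by quantitative RT-PCR, normalized to RIBOGREEN total RNA. Cells were exposed ~48 h to 2,000 nM oligonucleotide without transfection. Oligonucleotides were 16-nucleoside gapmers with three cEt nucleosides per wing, ten-deoxy gap, P=S linkages throughout.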

[1] = Yap1 mRNA remaining as percent of untreated control, 3-10-3 cEt gapmers, A-431 cells, Table 36
[2] = Table 16, A-431 cells, 5,000 cells per well, free uptake, 2,000 nM, approximately 48 hours, RTS4814, normalized to RIBOGREEN, Yap1 mRNA relative to untreated control cells
[3] = Table 15, A-431 cells, 5,000 cells per well, free uptake, 2,000 nM, approximately 48 hours, RTS4814, normalized to RIBOGREEN, Yap1 mRNA relative to untreated control, * = targets amplicon region of primer probe set
[4] = table after Table 37, headed TABLE 32 (gapmers targeting SEQ ID NO.: 3), A-431 cells, free uptake, 2,000 nM, approximately 48 hours, RTS4814
[5] = Table 14, A-431 cells, 5,000 cells per well, free uptake, 2,000 nM, approximately 48 hours, RTS4814, normalized to RIBOGREEN, Yap1 mRNA relative to untreated control, * = targets amplicon region of primer probe set

How did the “YAP1 (% UTC)” value [1] turn out when “1076054 (k[5mC]*kA*kT*dT*dA*dG*dA*d[5mC]*dT*dT*dT*d[5mC]*dT*kG*kT*k[5mC]; antisense) [compound 1076054]” was run?
Its value is 21 % UTC.

How did the “YAP1 (% UTC)” value [1] turn out when “1074358 (antisense kT*k[5mC]*kG*dA*dG*dG*dG*dA*d[5mC]*dA*d[5mC]*dT*dG*kT*kA*kG) [compound 1074358]” was run?
The value was 17 % UTC.

“1075139 (antisense k[5mC]*k[5mC]*k[5mC]*dA*dA*dA*dT*dA*dA*dT*dA*dG*dA*kT*kA*k[5mC]) [Compound 1075139]” was tested. Which “YAP1 (% UTC)” value (Table 17, A-431 cells, 5,000 cells per well, free uptake, 2,000 nM, approximately 48 hours, RTS4814, normalized to RIBOGREEN, Yap1 mRNA relative to untreated control cells) did it give?
The value was 65 % UTC.

“1075490 (antisense k[5mC]*kA*kT*dA*dT*dA*d[5mC]*dG*d[5mC]*dA*dA*dT*dT*kA*kG*kT) [Compound 1075490]” was tested. Which “YAP1 (% UTC)” value [2] did it give?
Its value is 27 % UTC.

For “1074774 (k[5mC]*kA*kA*dG*dA*dA*dT*dA*d[5mC]*d[5mC]*d[5mC]*dA*dG*kT*kT*kA; antisense) [compound 1074774]”, which “YAP1 (% UTC)” value [1] is on record?
The value was 16 % UTC.

For “1075585 (kA*kA*kA*dT*dA*dA*dT*dT*dG*dA*d[5mC]*d[5mC]*dT*kA*kG*k[5mC]; antisense) [Compound 1075585]”, which “YAP1 (% UTC)” value [3] is on record?
Its value is 52 % UTC.

For “1075778 (k[5mC]*kA*kT*dT*dT*dA*dT*dA*d[5mC]*d[5mC]*dA*dG*dG*k[5mC]*kA*k[5mC]; antisense) [Compound 1075778]”, which “YAP1 (% UTC)” value [2] is on record?
Its value is 3 % UTC.

“1074883 (kG*kG*k[5mC]*dT*dA*dA*d[5mC]*dT*d[5mC]*d[5mC]*dT*dG*d[5mC]*k[5mC]*kG*kA; antisense) [compound 1074883]” was tested. Which “YAP1 (% UTC)” value [4] did it give?
The value was 107 % UTC.

Which “YAP1 (% UTC)” value [2] does the source give for “1075842 (kG*kT*kA*dT*dT*dT*dA*dG*dG*dT*dA*d[5mC]*dT*k[5mC]*kA*kG; antisense) [Compound 1075842]” here?
Its value is 2 % UTC.

How did the “YAP1 (% UTC)” value (Yap1 mRNA remaining as percent of untreated control, 3-10-3 cEt gapmers, A-431 cells, Table 37) turn out when “1076055 (kA*kA*kT*dT*dA*d[5mC]*dT*dA*dA*d[5mC]*dA*dA*dT*k[5mC]*kT*k[5mC]; antisense) [compound 1076055]” was run?
Its value is 45 % UTC.

For “1074432 (antisense kG*kT*kT*dA*dA*dA*dA*dT*dG*dA*dT*dT*dG*kG*kT*kG) [Compound 1074432]”, which “YAP1 (% UTC)” value [5] is on record?
Its value is 3* % UTC.

With “1076546 (antisense k[5mC]*k[5mC]*k[5mC]*d[5mC]*dA*dA*d[5mC]*d[5mC]*dT*dG*dA*dG*dG*kA*kG*k[5mC]) [Compound 1076546]” as the substance, how does the “YAP1 (% UTC)” value [2] read?
Its value is 94 % UTC.

How did the “YAP1 (% UTC)” value [5] turn out when “1076384 (kT*kA*kT*dA*dA*dG*dG*dG*dA*d[5mC]*dT*dT*dG*k[5mC]*kT*kG; antisense) [Compound 1076384]” was run?
Its value is 25 % UTC.

How did the “YAP1 (% UTC)” value [3] turn out when “1075489 (antisense kG*kA*kG*d[5mC]*dA*dA*d[5mC]*dA*dA*d[5mC]*dT*dA*dT*kG*kA*kG) [Compound 1075489]” was run?
Its value is 51 % UTC.

“1074210 (antisense kT*k[5mC]*k[5mC]*dG*dG*dA*dG*d[5mC]*d[5mC]*dT*d[5mC]*dA*dT*kG*kG*kG) [Compound 1074210]” was tested. Which “YAP1 (% UTC)” value [2] did it give?
Its value is 113 % UTC.

Which “YAP1 (% UTC)” value [3] does the source give for “1074945 (antisense k[5mC]*kA*kA*dA*dA*d[5mC]*d[5mC]*d[5mC]*dT*dT*dT*dG*dG*kT*k[5mC]*kT) [Compound 1074945]” here?
Its value is 74 % UTC.

How did the “YAP1 (% UTC)” value [2] turn out when “1076258 (k[5mC]*kT*kT*dT*dA*dG*dG*dT*dG*d[5mC]*d[5mC]*dT*d[5mC]*k[5mC]*kT*kT; antisense) [Compound 1076258]” was run?
The value was 10 % UTC.

How did the “YAP1 (% UTC)” value [3] turn out when “1074209 (antisense k[5mC]*k[5mC]*kG*dG*dA*dG*d[5mC]*d[5mC]*dT*d[5mC]*dA*dT*dG*kG*kG*k[5mC]) [Compound 1074209]” was run?
Its value is 72 % UTC.

Which “YAP1 (% UTC)” value [1] does the source give for “1074550 (DNA kA*kT*kA*dT*d[5mC]*dT*dA*d[5mC]*d[5mC]*dG*dT*dA*dT*kG*k[5mC]*k[5mC]; antisense) [compound 1074550]” here?
Its value is 23 % UTC.

Which “YAP1 (% UTC)” value [4] does the source give for “1074881 (k[5mC]*kT*kA*dA*d[5mC]*dT*d[5mC]*d[5mC]*dT*dG*d[5mC]*d[5mC]*dG*kA*kA*kG; antisense) [compound 1074881]” here?
The value was 76 % UTC.
